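Test compounds were applied to cells in 96-well plates for 48 hours at 5 doses. TGI marks complete inhibition of growth.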
What was measured:
Experiment in all cases: NCI-60 cell line screen, 48 h
786-0 renal = test system: 786-0 renal
A498 renal = test system: A498 renal
A549 NSCLC = test system: A549 NSCLC
ACHN renal = test system: ACHN renal
BT-549 breast = test system: BT-549 breast
CAKI-1 renal = test system: CAKI-1 renal
COLO 205 colon = test system: COLO 205 colon
DU-145 prostate = test system: DU-145 prostate
EKVX NSCLC = test system: EKVX NSCLC
HCT-116 colon = test system: HCT-116 colon
HCT-15 colon = test system: HCT-15 colon
HOP-62 NSCLC = test system: HOP-62 NSCLC
HOP-92 NSCLC = test system: HOP-92 NSCLC
HS 578T breast = test system: HS 578T breast
HT29 colon = test system: HT29 colon
IGROV1 ovarian = test system: IGROV1 ovarian
K-562 leukemia = test system: K-562 leukemia
KM12 colon = test system: KM12 colon
LOX IMVI melanoma = test system: LOX IMVI melanoma
M14 melanoma = test system: M14 melanoma
MALME-3M melanoma = test system: MALME-3M melanoma
MCF7 breast = test system: MCF7 breast
MDA-MB-231 breast = test system: MDA-MB-231 breast
MDA-MB-435 = test system: MDA-MB-435
MDA-N = test system: MDA-N
MOLT-4 leukemia = test system: MOLT-4 leukemia
NCI-H226 lung = test system: NCI-H226 lung
NCI-H460 lung = test system: NCI-H460 lung
NCI-H522 lung = test system: NCI-H522 lung
NCI/ADR-RES ovarian = test system: NCI/ADR-RES ovarian
OVCAR-4 ovarian = test system: OVCAR-4 ovarian
OVCAR-5 ovarian = test system: OVCAR-5 ovarian
OVCAR-8 ovarian = test system: OVCAR-8 ovarian
PC-3 prostate = test system: PC-3 prostate
RPMI-8226 leukemia = test system: RPMI-8226 leukemia
RXF 393 renal = test system: RXF 393 renal
SF-268 CNS = test system: SF-268 CNS
SK-MEL-2 melanoma = test system: SK-MEL-2 melanoma
SK-MEL-28 melanoma = test system: SK-MEL-28 melanoma
SK-MEL-5 melanoma = test system: SK-MEL-5 melanoma
SN12C renal = test system: SN12C renal
SNB-19 CNS = test system: SNB-19 CNS
SNB-75 CNS = test system: SNB-75 CNS
SR leukemia = test system: SR leukemia
T-47D breast = test system: T-47D breast
TK-10 renal = test system: TK-10 renal
U251 CNS = test system: U251 CNS
UACC-257 melanoma = test system: UACC-257 melanoma
UACC-62 melanoma = test system: UACC-62 melanoma
UO-31 renal = test system: UO-31 renal
CCRF-CEM leukemia = test system: CCRF-CEM leukemia
HCC-2998 colon = test system: HCC-2998 colon
HL-60(TB) leukemia = test system: HL-60(TB) leukemia
NCI-H23 lung = test system: NCI-H23 lung
OVCAR-3 ovarian = test system: OVCAR-3 ovarian
SF-295 CNS = test system: SF-295 CNS
SF-539 CNS = test system: SF-539 CNS
SK-OV-3 ovarian = test system: SK-OV-3 ovarian
SW-620 colon = test system: SW-620 colon

`ClC(Cl)(Cl)C(N1CCN(c2ccccc2)CC1)N1CCN(c2ccccc2)CC1` was tested, and the TGI (786-0 renal) was greater than 100 µM, the TGI (A498 renal) was greater than 100 µM and the TGI (A549 NSCLC) was greater than 100 µM. For the same compound, the TGI (ACHN renal) was greater than 100 µM, the TGI (BT-549 breast) was greater than 100 µM and the TGI (CAKI-1 renal) was greater than 100 µM. The TGI (COLO 205 colon) was greater than 100 µM, the TGI (DU-145 prostate) was greater than 100 µM and the TGI (EKVX NSCLC) was greater than 100 µM. For the same compound, the TGI (HCT-116 colon) was greater than 100 µM, the TGI (HCT-15 colon) was greater than 100 µM and the TGI (HOP-62 NSCLC) was greater than 100 µM. It also gave a TGI (HOP-92 NSCLC) greater than 100 µM, a TGI (HS 578T breast) greater than 100 µM and a TGI (HT29 colon) greater than 100 µM. The TGI (IGROV1 ovarian) was greater than 100 µM, the TGI (K-562 leukemia) was greater than 100 µM and the TGI (KM12 colon) was greater than 100 µM. It also gave a TGI (LOX IMVI melanoma) greater than 100 µM, a TGI (M14 melanoma) greater than 100 µM and a TGI (MALME-3M melanoma) greater than 100 µM. For the same compound, the TGI (MCF7 breast) was greater than 100 µM, the TGI (MDA-MB-231 breast) was greater than 100 µM and the TGI (MDA-MB-435) was greater than 100 µM. The TGI (MDA-N) was greater than 100 µM, the TGI (MOLT-4 leukemia) was greater than 100 µM and the TGI (NCI-H226 lung) was greater than 100 µM. It also gave a TGI (NCI-H460 lung) greater than 100 µM, a TGI (NCI-H522 lung) greater than 100 µM and a TGI (NCI/ADR-RES ovarian) greater than 100 µM. It also gave a TGI (OVCAR-4 ovarian) greater than 100 µM, a TGI (OVCAR-5 ovarian) greater than 100 µM and a TGI (OVCAR-8 ovarian) greater than 100 µM. It also gave a TGI (PC-3 prostate) greater than 100 µM, a TGI (RPMI-8226 leukemia) greater than 100 µM and a TGI (RXF 393 renal) greater than 100 µM. It also gave a TGI (SF-268 CNS) greater than 100 µM, a TGI (SK-MEL-2 melanoma) greater than 100 µM and a TGI (SK-MEL-28 melanoma) greater than 100 µM. For the same compound, the TGI (SK-MEL-5 melanoma) was greater than 100 µM, the TGI (SN12C renal) was greater than 100 µM and the TGI (SNB-19 CNS) was greater than 100 µM. It also gave a TGI (SNB-75 CNS) greater than 100 µM, a TGI (SR leukemia) greater than 100 µM and a TGI (T-47D breast) greater than 100 µM. For the same compound, the TGI (TK-10 renal) was greater than 100 µM, the TGI (U251 CNS) was greater than 100 µM and the TGI (UACC-257 melanoma) was greater than 100 µM. It also gave a TGI (UACC-62 melanoma) greater than 100 µM and a TGI (UO-31 renal) greater than 100 µM.

With `Cc1ccc(O)c(-c2cc(-c3cccc(Br)c3)on2)c1` the TGI (786-0 renal) was greater than 100 µM, the TGI (A498 renal) was greater than 100 µM and the TGI (A549 NSCLC) was greater than 100 µM. For the same compound, the TGI (ACHN renal) was greater than 100 µM, the TGI (BT-549 breast) was 77.5 µM and the TGI (CAKI-1 renal) was greater than 100 µM. For the same compound, the TGI (CCRF-CEM leukemia) was greater than 100 µM, the TGI (COLO 205 colon) was 37.1 µM and the TGI (DU-145 prostate) was greater than 100 µM. It also gave a TGI (EKVX NSCLC) greater than 100 µM, a TGI (HCC-2998 colon) of 53.2 µM and a TGI (HCT-116 colon) of 57.7 µM. The TGI (HCT-15 colon) was greater than 100 µM, the TGI (HL-60(TB) leukemia) was 81.9 µM and the TGI (HOP-62 NSCLC) was greater than 100 µM. It also gave a TGI (HOP-92 NSCLC) greater than 100 µM, a TGI (HS 578T breast) greater than 100 µM and a TGI (HT29 colon) of 67.3 µM. It also gave a TGI (IGROV1 ovarian) greater than 100 µM, a TGI (K-562 leukemia) greater than 100 µM and a TGI (KM12 colon) of 47.2 µM. It also gave a TGI (LOX IMVI melanoma) of 31.5 µM, a TGI (M14 melanoma) greater than 100 µM and a TGI (MALME-3M melanoma) of 68.9 µM. The TGI (MCF7 breast) was 32.5 µM, the TGI (MDA-MB-231 breast) was greater than 100 µM and the TGI (MDA-MB-435) was 50 µM. For the same compound, the TGI (MDA-N) was 65.2 µM, the TGI (MOLT-4 leukemia) was greater than 100 µM and the TGI (NCI-H23 lung) was greater than 100 µM. For the same compound, the TGI (NCI-H460 lung) was greater than 100 µM, the TGI (NCI/ADR-RES ovarian) was greater than 100 µM and the TGI (OVCAR-3 ovarian) was 51.7 µM. It also gave a TGI (OVCAR-4 ovarian) of 34.6 µM, a TGI (OVCAR-5 ovarian) greater than 100 µM and a TGI (OVCAR-8 ovarian) of 67.3 µM. For the same compound, the TGI (PC-3 prostate) was greater than 100 µM, the TGI (RPMI-8226 leukemia) was 85.2 µM and the TGI (RXF 393 renal) was 35.7 µM. It also gave a TGI (SF-268 CNS) of 89.9 µM, a TGI (SF-295 CNS) greater than 100 µM and a TGI (SF-539 CNS) greater than 100 µM. For the same compound, the TGI (SK-MEL-2 melanoma) was 56 µM, the TGI (SK-MEL-28 melanoma) was 52.8 µM and the TGI (SK-MEL-5 melanoma) was 41.6 µM. The TGI (SK-OV-3 ovarian) was 68.6 µM, the TGI (SN12C renal) was 55.1 µM and the TGI (SNB-19 CNS) was greater than 100 µM. It also gave a TGI (SNB-75 CNS) of 86.2 µM, a TGI (SR leukemia) of 99.4 µM and a TGI (SW-620 colon) of 46.7 µM. The TGI (T-47D breast) was greater than 100 µM, the TGI (TK-10 renal) was 43.2 µM and the TGI (U251 CNS) was 33.7 µM. It also gave a TGI (UACC-257 melanoma) greater than 100 µM, a TGI (UACC-62 melanoma) of 78.1 µM and a TGI (UO-31 renal) greater than 100 µM.

From PubChem BioAssay (NCI)
